Read-outs that look alike come from different tables or passages of the source.
How the values were obtained:
[1] = system: HBV-transgenic mice (Strain HBV1.3.32); type: in vivo, mouse
HBVtg mice = settings: mouse, in vivo
[2] = system: HBV-transgenic mice (Strain HBV1.3.32); settings: mouse, in vivo
[3] = system: chronic Hepatitis B virus (HBV)-infection; settings: cited from earlier work
[4] = middle and high antigenemic HBVtg mice, day 34

Row | Compound | titers of anti-HBc antibodies, c-di-AMP compared to CpG/PCEP regimen ([1]; day 34, p<0.05) | impact on serum HBeAg levels ([1]; high antigenemic HBVtg mice, HBsAg+HBcAg prime twice, MVA-S/core boost day 28, day 34) | HBV replication, detected indirectly by HBeAg levels ([1]; i.m. route) | HBsAg to anti-HBs seroconversion [1, 4] | anti-HBc responses [1, 4] | HBV replication, detected indirectly by HBeAg levels ([1]; s.c./i.p. routes) | liver damage / increase in ALT (HBVtg mice) | adjuvant efficacy for therapeutic protein prime-MVA boost vaccination [2] | difference in magnitude of HBV-specific CD8+ T cell responses between c-di-AMP and CpG/PCEP regimens [2] | efficacy as adjuvant for therapeutic protein prime-MVA boost vaccination [2] | efficacy in i.m. versus s.c./i.p. application routes [2] | patients in whom therapy is curative [3]
1 | Nc1ncnc2c1ncn2[C@@H]1O[C@@H]2COP(=O)(O)O[C@H]3[C@@H](O)[C@H](n4cnc5c(N)ncnc54)O[C@@H]3COP(=O)(O)O[C@H]2[C@H]1O [c-di-AMP, bis-(3′,5′)-cyclic dimeric adenosine monophosphate] | significantly higher titers | Neither c-di-AMP nor CpG/PCEP immunization protocol had an impact | lower HBV replication | HBsAg to anti-HBs seroconversion in all examined HBVtg mice | significant anti-HBc responses | lower HBV replication | mild T-cell-induced liver damage | potent adjuvant | no statistically significant difference | very potent adjuvant | equally effective | –
2 | Interferon α | – | – | – | – | – | – | – | – | – | – | – | 15-20%

— patent US10912827B2 (priority 2016, dated 2021)
